Measured values reported in paper PMC7717600, “Novel [(N-alkyl-3-indolylmethylene)hydrazono]oxindoles arrest cell cycle and induce cell apoptosis by inhibiting CDK2 and Bcl-2: synthesis, biological evaluation and in silico studies” (Journal of Enzyme Inhibition and Medicinal Chemistry, 2020).
Like-named read-outs stand apart in the source and are kept apart here.

Tests used:
MALME-3M = settings: listed as D - 795311 / 1
SK-MEL-2 = settings: for TGI: SK-MEL-2
SK-MEL-28 = settings: for TGI: SK-MEL-28
SK-MEL-5 = settings: for TGI: SK-MEL-5
UACC-257 = settings: for TGI: UACC-257
UACC-62 = settings: for TGI: UACC-62
IGROV1 = settings: for TGI: IGROV1
OVCAR-3 = settings: for TGI: OVCAR-3
OVCAR-5 = settings: for TGI: OVCAR-5
OVCAR-8 = settings: for TGI: OVCAR-8
786-0 = settings: for TGI: 786-0
A498 = settings: for TGI: A498
MCF7 = settings: for TGI: MCF7
BT-549 = settings: for TGI: BT-549
MDA-MB-468 = settings: for TGI: MDA-MB-468
NCI-H322M = assay: NCI SRB screening

Structure (SMILES): CCCn1cc(C=NN=C2C(=O)Nc3ccc(C)cc32)c2ccccc21 [Compound 8a]
- TGI (MALME-3M): 6.03E-6 Molar
- TGI (SK-MEL-2): 8.03 µM
- GI % (SK-MEL-2; SK-MEL-2, 10 μM): 65%
- Growth Percent (SK-MEL-2; SK-MEL-2, 1.00E-5 Molar): 35.06%
- TGI (SK-MEL-2; listed as D - 795311 / 1): 8.03E-6 Molar
- TGI (SK-MEL-28): 36.9 µM
- GI % (SK-MEL-28; SK-MEL-28, 10 μM): 41%
- Growth Percent (SK-MEL-28; SK-MEL-28, 1.00E-5 Molar): 59.40%
- TGI (SK-MEL-28; listed as D - 795311 / 1): 3.69E-5 Molar
- TGI (SK-MEL-5): 13.50 µM
- GI % (SK-MEL-5; SK-MEL-5, 10 μM): 51%
- Growth Percent (SK-MEL-5; SK-MEL-5, 1.00E-5 Molar): 49.07%
- TGI (SK-MEL-5; listed as D - 795311 / 1): 1.35E-5 Molar
- CC50 (SK-MEL-5; human, 48 h): 39 µM
- TGI (UACC-257): 66.60 µM
- GI % (UACC-257; UACC-257, 10 μM): 41%
- Growth Percent (UACC-257; UACC-257, 1.00E-5 Molar): 58.80%
- TGI (UACC-257; listed as D - 795311 / 1): 6.66E-5 Molar
- TGI (UACC-62): 12.10 µM
- GI % (UACC-62; UACC-62, 10 μM): 60%
- Growth Percent (UACC-62; UACC-62, 1.00E-5 Molar): 40.39%
- TGI (UACC-62; listed as D - 795311 / 1): 1.21E-5 Molar
- TGI (IGROV1): 63.10 µM
- GI % (IGROV1; IGROV1, 10 μM): 61%
- Growth Percent (IGROV1; IGROV1, 1.00E-5 Molar): 39.38%
- TGI (IGROV1; listed as D - 795311 / 1): 6.31E-5 Molar
- TGI (OVCAR-3): 5.11 µM
- GI % (OVCAR-3; OVCAR-3, 10 μM): 98%
- Growth Percent (OVCAR-3; OVCAR-3, 1.00E-5 Molar): 2.10%
- TGI (OVCAR-3; listed as D - 795311 / 1): 5.11E-6 Molar
- GI50 (OVCAR-4; OVCAR-4): 0.93 µM
- TGI (OVCAR-4; OVCAR-4): 25.60 µM
- GI % (OVCAR-4; OVCAR-4, 10 μM): 58%
- Growth Percent (OVCAR-4; OVCAR-4, 1.00E-5 Molar): 41.83%
- TGI (OVCAR-4; OVCAR-4, listed as D - 795311 / 1): 2.56E-5 Molar
- TGI (OVCAR-5): 25.8 µM
- GI % (OVCAR-5; OVCAR-5, 10 μM): 16%
- Growth Percent (OVCAR-5; OVCAR-5, 1.00E-5 Molar): 84.60%
- TGI (OVCAR-5; listed as D - 795311 / 1): 2.58E-5 Molar
- TGI (OVCAR-8): >100 µM
- GI % (OVCAR-8; OVCAR-8, 10 μM): 53%
- Growth Percent (OVCAR-8; OVCAR-8, 1.00E-5 Molar): 47.49%
- TGI (OVCAR-8; listed as D - 795311 / 1): > 1.00E-4 Molar
- TGI (NCI/ADR-RES): 89.90 µM
- GI % (NCI/ADR-RES; 10 μM): 24%
- Growth Percent (NCI/ADR-RES; 1.00E-5 Molar): 76.32%
- TGI (NCI/ADR-RES; listed as D - 795311 / 1): 8.99E-5 Molar
- TGI (786-0): 71.20 µM
- GI % (786-0; 786-0, 10 μM): 36%
- Growth Percent (786-0; 786-0, 1.00E-5 Molar): 64.53%
- TGI (786-0; listed as D - 795311 / 1): 7.12E-5 Molar
- TGI (A498): 7.50 µM
- GI % (A498; A498, 10 μM): 43%
- Growth Percent (A498; A498, 1.00E-5 Molar): 57.21%
- TGI (A498; listed as D - 795311 / 1): 7.50E-6 Molar
- TGI (ACHN): >100 µM
- GI % (ACHN; 10 μM): 45%
- Growth Percent (ACHN; 1.00E-5 Molar): 55.74%
- TGI (ACHN; listed as D - 795311 / 1): > 1.00E-4 Molar
- TGI (SN12C): 75.90 µM
- GI % (SN12C; 10 μM): 51%
- Growth Percent (SN12C; 1.00E-5 Molar): 49.93%
- TGI (SN12C; listed as D - 795311 / 1): 7.59E-5 Molar
- GI % (UO-31; UO-31, 10 μM): 40%
- Growth Percent (UO-31; UO-31, 1.00E-5 Molar): 60.00%
- TGI (UO-31; UO-31, listed as D - 795311 / 1): 6.18E-5 Molar
- TGI (MCF7): 15.50 µM
- GI % (MCF7; MCF7, 10 μM): 91%
- Growth Percent (MCF7; MCF7, 1.00E-5 Molar): 8.92%
- TGI (MCF7; listed as D - 795311 / 1): 1.55E-5 Molar
- TGI (BT-549): 6.33 µM
- GI % (BT-549; BT-549, 10 μM): 37%
- Growth Percent (BT-549; BT-549, 1.00E-5 Molar): 63.53%
- TGI (BT-549; listed as D - 795311 / 1): 6.33E-6 Molar
- GI50 (T-47D): 0.41 µM
- TGI (T-47D): 18.40 µM
- GI % (T-47D; 10 μM): 61%
- Growth Percent (T-47D; 1.00E-5 Molar): 39.59%
- TGI (T-47D; listed as D - 795311 / 1): 1.84E-5 Molar
- TGI (MDA-MB-468): 5.78 µM
- GI % (MDA-MB-468; MDA-MB-468, 10 μM): 75%
- Growth Percent (MDA-MB-468; MDA-MB-468, 1.00E-5 Molar): 25.19%
- TGI (MDA-MB-468; listed as D - 795311 / 1): 5.78E-6 Molar
- TGI (NCI-H322M): >100 µM
- GI % (NCI-H322M; 10 μM): 53%
- Growth Percent (NCI-H322M; 1.00E-5 Molar): 47.76%
- GI50 (NCI-H322M; Homo sapiens): 3.42 µM
- CC50 (NCI-H322M; Homo sapiens, read-out: LC50): > 100 µM
- TGI (NCI-H322M; listed as D - 795311 / 1): > 1.00E-4 Molar
